# Test results published in publication PMC7561186, “Rational design of balanced dual-targeting antibiotics with limited resistance” (PLoS Biology, 2020).
# Where “and” joins values, the source holds several entries; their conditions need not be identical. Equal entries are not always repeated. Where two headings read alike, the source gives them in different places.
# What was measured:
# [1] = tested on: S. aureus clinical isolates; assay: microbe, parasite or virus in culture; format: cell-based; settings: Staphylococcus aureus, read-out: MIC
# [2] = tested on: S. aureus ATCC 700699 and S. aureus ATCC 43300; assay: Spontaneous frequency-of-resistance assay; format: cell-based
# Description: Prior to plating, bacteria were grown overnight in MHBII medium at 37 °C, 250 rpm, collected by centrifugation, and washed once in equal volumes of MHBII broth. From this concentrated cell suspension (250 μL), approximately 10^10 cells were then plated to each MHBII agarose plates. […] All experiments were performed in at least 3 replicates. Plates were grown at 37 °C for 72 hours. Total CFUs were determined simultaneously in each experiment by plating appropriate dilutions to antibiotic-free MHBII agar plates. Finally, resistance frequencies for each strain were calculated by dividing the number of colonies formed after a 72-hour incubation at 37 °C by the initial viable cell count.
# [3] = tested on: human hERG potassium ion channel
# Description: Inhibition of the human hERG cardiac K+ ion channel was determined by Eurofins Panlabs (St. Charles, MO, USA) by using QPatch automated whole-cell patch-clamp electrophysiology, as described previously. […] During measurements, after whole-cell patch configuration was achieved, the cells were held at −80 mV. Next, a 500-millisecond pulse to −40 mV was delivered to measure the leaking current, which was then subtracted from the tail current’s readout. Then the cell was depolarized to +40 mV for 500 milliseconds and then to −80 mV over a 100-millisecond ramp to elicit the hERG tail current. This workflow was repeated once in every 8 seconds to monitor the current amplitude. The parameters measured during each test were the maximum tail current evoked on stepping to 40 mV and ramping back to −80 mV from the test pulse. All data were filtered for seal quality, seal drop, and current amplitude. The peak current amplitude was calculated before and after compound addition, and the amount of inhibition was assessed by dividing the test compound’s current amplitude by the control’s current amplitude. During our tests, the control was the mean hERG current amplitude collected 15 seconds at the end of each measurement, and the test compound was the mean hERG current amplitude collected in the presence of test compound at the given concentration.
# [4] = tested on: MCF-7 cells; settings: LDH assay
# Description: (§1) Cytotoxicity of compounds on HepG2 and MCF-7 mammalian cell lines was determined by using a standard LDH assay. Briefly, HepG2 and MCF-7 cells were cultured in Eagle’s MEM medium (from Gibco) supplemented with 2 mM L-glutamine (Sigma), 100 U/mL penicillin (Sigma), and 100 μg/mL streptomycin (Sigma), and 10% FBS (Gibco) at 37 °C and under 5% CO2. Next, LDH assays were performed according to manufacturer instructions (Thermo Fisher Scientific, Massachusetts, USA). By using a CyQUANT LDH Cytotoxicity Assay Kit. Firstly, the cells were seeded in 96-well microtiter plates at 10^5 cells/mL (100 μL/well) and allowed to attach overnight. […] Lysis buffer (10 μL, Thermo Fisher Scientific) was then added to the maximal LDH activity control wells and incubated additional 45 minutes. The cell culture supernatant (50 μL) was then transferred to a new 96-well plate and mixed with 50 μL of the reaction mixture. After 30 minutes on room temperature, reactions were stopped with 50 μL of the Stop solution. Absorbance (490 nm and 680 nm) was measured with the automatic microplate reader Synergy 4 Hybrid Microplate Reader (BioTek, VT, USA). All experiments were performed in triplicates and repeated 3 times. Statistical significance (P < 0.05) was calculated with 2-tailed Welch’s t-test between treated groups and DMSO. The percentage of cytotoxicity was determined according to the following equation: %Cytotoxicity=(CompoundtreatedLDHactivity-SpontaneousLDHactivity/MaximumLDHactivity-SpontaneousLDHactivity)*100
# [5] = in vitro; settings: human
# Description: as §1
compound,measurement,setting,value
Cc1[nH]c(C(=O)Nc2nc3ccc(C(=O)O)cc3s2)c(Cl)c1Cl [ULD1],MIC,"[1]; MRSA, S. aureus IHMA 1720350, MRSA / VSSA",1 µg/mL
same,MIC,"[1]; MRSA, S. aureus IHMA 1732989, MRSA / VSSA",1 µg/mL
same,MIC,"[1]; MRSA, S. aureus IHMA 1742231, MRSA / VSSA",0.5 µg/mL
same,MIC,"[1]; MRSA, S. aureus IHMA 1766357, MRSA / VSSA",0.25 µg/mL
same,MIC,"[1]; MSSA / NRS 12 / VISA, S. aureus IHMA 1308244, NRS12, MSSA / VISA",1 µg/mL
same,MIC,"[1]; MSSA / NRS 13 / VISA, S. aureus IHMA 1308245, NRS13, MSSA / VISA",1 µg/mL
same,MIC,"[1]; MSSA / NRS 14 / VISA, S. aureus IHMA 1308246, NRS14, MSSA / VISA",1 µg/mL
same,MIC,"[1]; MSSA / NRS 17 / VISA, S. aureus IHMA 1308247, NRS17, MSSA / VISA",1 µg/mL
same,MIC,"[1]; MSSA / NRS 28 / VISA, S. aureus IHMA 1308249, NRS28, MSSA / VISA",1 µg/mL
same,MIC,"[1]; MSSA / NRS 52, S. aureus IHMA 1308252, NRS52, MSSA / VSSA* (*Expected VAN intermediate, confirmed VAN susceptible twice), test date 2018-11-07",0.12 µg/mL
same,MIC,"[1]; MSSA / USA100 / VRSA, S. aureus IHMA 672236, VRS6, MSSA / VRSA, USA100",0.25 µg/mL
same,MIC,"[1]; MSSA, S. aureus IHMA 1563826, MSSA / VSSA",0.5 µg/mL
same,MIC,"[1]; MSSA, S. aureus IHMA 1565492, MSSA / VSSA",0.25 µg/mL
same,MIC,"[1]; MSSA, S. aureus IHMA 1569499, MSSA / VSSA",1 µg/mL
same,MIC,"[1]; MSSA, S. aureus IHMA 1569754, MSSA / VSSA",0.25 µg/mL
same,MIC,"[1]; MSSA, S. aureus IHMA 1574202, MSSA / VSSA",0.5 µg/mL
same,MIC,"[1]; MSSA, S. aureus IHMA 1575652, MSSA / VSSA",0.5 µg/mL
same,MIC,"[1]; MSSA, S. aureus IHMA 1575779, MSSA / VSSA",1 µg/mL
same,MIC,"[1]; MSSA, S. aureus IHMA 1576329, MSSA / VSSA",1 µg/mL
same,MIC,"[1]; MSSA, S. aureus IHMA 1577800, MSSA / VSSA",0.5 µg/mL
same,MIC,"[1]; MSSA, S. aureus IHMA 1578560, MSSA / VSSA",1 µg/mL
same,MIC,"[1]; MSSA, S. aureus IHMA 1580233, MSSA / VSSA",0.25 µg/mL
same,MIC,"[1]; MSSA, S. aureus IHMA 1580925, MSSA / VSSA",0.25 µg/mL
same,MIC,"[1]; MSSA, S. aureus IHMA 1580955, MSSA / VSSA",1 µg/mL
same,MIC,"[1]; MSSA, S. aureus IHMA 1582586, MSSA / VSSA",1 µg/mL
same,MIC,"[1]; MSSA, S. aureus IHMA 1582691, MSSA / VSSA",0.25 µg/mL
same,MIC,"[1]; MSSA, S. aureus IHMA 1584230, MSSA / VSSA",1 µg/mL
same,MIC,"[1]; MSSA, S. aureus IHMA 1587279, MSSA / VSSA",0.5 µg/mL
same,MIC,"[1]; MSSA, S. aureus IHMA 1591459, MSSA / VSSA",0.5 µg/mL
same,MIC,"[1]; MSSA, S. aureus IHMA 1592749, MSSA / VSSA",1 µg/mL
same,MIC,"[1]; MSSA, S. aureus IHMA 1592751, MSSA / VSSA",0.5 µg/mL
same,MIC,"[1]; MSSA, S. aureus IHMA 1594297, MSSA / VSSA",1 µg/mL
same,MIC,"[1]; MSSA, S. aureus IHMA 1597120, MSSA / VSSA",1 µg/mL
same,MIC,"[1]; MSSA, S. aureus IHMA 1597125, MSSA / VSSA",1 µg/mL
same,MIC,"[1]; MSSA, S. aureus IHMA 1599157, MSSA / VSSA",1 µg/mL
same,MIC,"[1]; MSSA, S. aureus IHMA 1599506, MSSA / VSSA",0.12 µg/mL
same,MIC,"[1]; MSSA, S. aureus IHMA 1602078, MSSA / VSSA",0.5 µg/mL
same,MIC,"[1]; MSSA, S. aureus IHMA 1604586, MSSA / VSSA",0.5 µg/mL
same,MIC,"[1]; MSSA, S. aureus IHMA 1604609, MSSA / VSSA",0.5 µg/mL
same,MIC,"[1]; MSSA, S. aureus IHMA 1609919, MSSA / VSSA",0.5 µg/mL
same,MIC,"[1]; MSSA, S. aureus IHMA 1622864, MSSA / VSSA",0.5 µg/mL
same,MIC,"[1]; MSSA, S. aureus IHMA 1626392, MSSA / VSSA",1 µg/mL
same,MIC,"[1]; MSSA, S. aureus IHMA 1713793, MSSA / VSSA",1 µg/mL
same,mutant prevention concentration (MPC),"[2]; S. aureus ATCC 700699 (VISA), estimate",0.16 µg/mL
same,Spontaneous frequency-of-resistance (replicates),"[2]; Staphylococcus aureus (MRSA) ATCC 43300, 2xMIC",2e-9 and 2.769e-9 and 5.333e-10 and 1.1e-9 and 1.263e-9 and 2.587e-9 and 2.787e-9 and 2.50E-09 and 3.14E-09 and 4.80E-09
same,Spontaneous frequency-of-resistance (replicates),"[2]; Staphylococcus aureus (MRSA) ATCC 43300, 4xMIC",9.286e-10 and 7.692e-10 and 1.333e-10 and 5e-10 and 9.868e-10 and 1.045e-9 and 7.377e-10 and 1.30E-09 and 9.54E-10 and 1.09E-08 and 7.14E-11
same,Spontaneous frequency-of-resistance (replicates),"[2]; Staphylococcus aureus (MRSA) ATCC 43300, 8xMIC",1.00E-12
same,Spontaneous frequency-of-resistance (replicates),"[2]; Staphylococcus aureus (VISA) ATCC 700699, 2xMIC",2.06e-9 and 1.815e-9 and 2.326e-9 and 1.86e-9 and 1.40E-09 and 7.33E-10 and 2.00E-09 and 1.64E-09 and 3.594e-9 and 2.426e-9
same,Spontaneous frequency-of-resistance (replicates),"[2]; Staphylococcus aureus (VISA) ATCC 700699, 4xMIC",1.00E-12 and 3.109e-10 and 2.252e-10 and 3.243e-10 and 3.9801e-10 and 2.304e-10 and 2.871e-10 and 1.676e-10
same,Spontaneous frequency-of-resistance (replicates),"[2]; Staphylococcus aureus (VISA) ATCC 700699, 8xMIC",1.00E-12
same,resistant variants detected,"[2]; exposure at 8-fold the wild-type MIC, S. aureus, in words",no resistant variants of S. aureus have been detected
same,inhibitory effect on human hERG ion channels,"[3]; 150 μM, in words",No statistically significant inhibitory effect
same,Significant (hERG inhibition),"[3]; hERG, 150 µM",No (Only results showing an inhibition higher than 50% are considered to represent significant effects of the tested compounds)
same,Normalized inhibition (%),"[3]; hERG, 150 µM, n = 8",5.5%
same,Max. % inhibition at 100 µM,[4],Max. % inhibition at 100 µM: 0%
same,IC50,[5],> 100 µM
